# Experimental data reported in patent US12325697B2 (Nimbus Clio, Inc., priority 2021, dated 2025).
# Columns and labels:
# [1] = target: Recombinant human c-Cbl (aa 47-435) (Homo sapiens (Human), UniProt P22681); test: c-Cbl Biochemical Assay (TR-FRET)
# Experimental: Recombinant human c-Cbl (aa 47-435) was expressed in E. coli, purified and biotinylated in vitro. The protein was diluted to 12 nM in freshly prepared assay buffer consisting of 50 mM HEPES, pH 7.0, 100 mM NaCl, 5 mM MgCl2, 0.01% Triton-X 100, 0.01% BSA and 1 mM DTT. Recombinant human Src (aa 254-536)-[…]-Zap-70 (aa 281-297) fusion protein was expressed in E. coli and purified. Protein was diluted in assay buffer to 5-20 nM and ATP was added to 1 mM. Recombinant human UBE2D2([…]) was expressed in E. coli, purified and ubiquitinated and Bodipy labelled in vitro. Protein was diluted to 200 nM in assay buffer without MgCl2 (or Cisbio PPI buffer). Streptavidin-Terbium was added to 2 nM and EDTA to 10 mM, to provide a binding assay mix. Compounds were dissolved in DMSO and diluted to prepare a ten-point half log dilution series. 100 nl of each compound concentration was dispensed in duplicate in a 384 well black assay plate using acoustic dispensing. Wells for maximum signal controls received 100 nl of DMSO only and wells for minimum controls received 100 nl of a reference inhibitor compound at a final assay concentration of […] to produce 100% inhibition. 5 μl of diluted c-cbl enzyme was added to all wells of the assay plate and incubated at RT for 30 min. The enzyme assay was initiated by addition of 5 μl of Src-Zap/ATP mix to all wells, and the plate incubated at RT for 60-90 min. The enzyme reaction was terminated and the binding reaction was initiated by adding 10 μl of binding assay mix to all wells and incubating the plate at RT for 60 min prior to assay read. Final assay conditions consisted of 6 nM c-cbl, 2.5-10 nM Src-Zap70, 0.5 mM ATP, 1% (v/v) DMSO (enzyme reaction) and 100 nM UBE2D2([…])-Ub-FL-BODIPY, 5 mM EDTA, 1 nM Streptavidin-Tb (binding reaction). The HTRF assay signal was measured at 520 nm on an Envision plate reader, with reference signal at 485 or 620 nm. Data was normalized using maximum and minimum assay controls: % Inhibition=100-(100*((maximum control)-unknown)/(maximum control-minimum control)). A 4-parameter dose-response equation was used to fit the normalized dose-response data and derive an IC50 for test compounds.
# [2] = target: Recombinant human Cbl-b (aa 36-427) (Homo sapiens (Human), UniProt Q13191); test: Cbl-b Biochemical Assay (TR-FRET); details: read-out: TR-FRET hCbl-b IC50
# Chain of Recombinant human Cbl-b (aa 36-427) (Q13191 36-427): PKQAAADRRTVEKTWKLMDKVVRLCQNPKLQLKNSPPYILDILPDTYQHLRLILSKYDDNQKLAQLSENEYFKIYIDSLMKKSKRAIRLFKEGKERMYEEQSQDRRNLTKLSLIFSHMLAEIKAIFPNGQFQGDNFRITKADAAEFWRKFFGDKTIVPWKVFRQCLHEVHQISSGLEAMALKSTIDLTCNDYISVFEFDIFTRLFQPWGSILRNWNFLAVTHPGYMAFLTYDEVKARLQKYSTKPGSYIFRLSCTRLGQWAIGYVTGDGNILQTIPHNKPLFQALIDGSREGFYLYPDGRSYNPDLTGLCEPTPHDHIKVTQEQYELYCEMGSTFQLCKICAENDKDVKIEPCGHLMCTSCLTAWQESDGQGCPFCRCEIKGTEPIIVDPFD
# In short: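 Two-step TR-FRET: 6 nM biotinylated Cbl-b preincubated 30-60 min with compound, then 60 min at RT with 1-2.5 nM Src-Zap70 and 0.5 mM ATP in HEPES pH 7.0 buffer, 1% DMSO. Stopped with 5 mM EDTA plus 100 nM UBE2D2-Ub-FL-BODIPY and 1 nM streptavidin-Tb, 60 min; 520 nm signal; IC50 from 4-parameter fit.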
# Chain of Recombinant human c-Cbl (aa 47-435) (P22681 47-435): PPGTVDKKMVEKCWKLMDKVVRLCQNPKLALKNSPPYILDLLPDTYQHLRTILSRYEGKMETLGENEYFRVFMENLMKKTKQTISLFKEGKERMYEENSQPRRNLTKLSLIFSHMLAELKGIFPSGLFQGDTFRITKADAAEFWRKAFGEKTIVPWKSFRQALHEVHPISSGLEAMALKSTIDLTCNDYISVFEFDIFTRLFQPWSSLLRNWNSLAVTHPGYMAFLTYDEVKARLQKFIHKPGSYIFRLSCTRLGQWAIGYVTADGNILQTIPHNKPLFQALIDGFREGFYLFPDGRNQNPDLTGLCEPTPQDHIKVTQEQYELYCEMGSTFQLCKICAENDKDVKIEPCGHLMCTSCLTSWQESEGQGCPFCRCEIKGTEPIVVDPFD
SMILES,IC50 [1] [µM],IC50 [2] [µM]
"CN1CCC[C@H]1COCc1cc2c(c(C(F)(F)F)c1)CN(c1cc(-c3ccc(F)cc3-c3nncn3C)cc(C3CC3)n1)C2=O [AHR-4, (S)-2-(6-Cyclopropyl-4-(4-fluoro-2-(4-methyl-4H-1,2,4-triazol-3-yl)phenyl)pyridin-2-yl)-6-(((1-methylpyrrolidin-2-yl)methoxy)methyl)-4-(trifluoromethyl)isoindolin-1-one]",≤ 0.2,≤ 0.2
"CCOc1cc(-c2ccc(C#N)cc2-c2nncn2C)cc(N2Cc3ccc(CNCCOC)cc3C2=O)n1 [AHS-2, 4-(2-Ethoxy-6-(6-(((2-methoxyethyl)amino)methyl)-1-oxoisoindolin-2-yl)pyridin-4-yl)-3-(4-methyl-4H-1,2,4-triazol-3-yl)benzonitrile]",≤ 0.2,≤ 0.2
"CCOc1cc(-c2ccc(Cl)cc2-c2nncn2C)cc(N2Cc3ccc(CNCC4(O)CCC4)cc3C2=O)n1 [AHT-2, 2-(4-(4-Chloro-2-(4-methyl-4H-1,2,4-triazol-3-yl)phenyl)-6-ethoxypyridin-2-yl)-6-((((1-hydroxycyclobutyl)methyl)amino)methyl)isoindolin-1-one]",≤ 0.2,≤ 0.2
"C#CCOc1ccc(-c2cc(NCC)nc(N3Cc4c(cccc4C(F)(F)F)C3=O)c2)c(-c2nncn2C)c1 [AHU-12, 2-[6-(Ethylamino)-4-[2-(4-methyl-1,2,4-triazol-3-yl)-4-(prop-2-yn-1-yloxy)phenyl]pyridin-2-yl]-4-(trifluoromethyl)-3H-isoindol-1-one]",0.2 to 1,≤ 0.2
"Cn1cnnc1-c1cc(C#N)ccc1-c1cc(C2CC2)nc(N2Cc3ccc(CO)cc3C2=O)c1 [AHV-1, 4-{2-Cyclopropyl-6-[6-(hydroxymethyl)-1-oxo-3H-isoindol-2-yl]pyridin-4-yl}-3-(4-methyl-1,2,4-triazol-3-yl)benzonitrile]",≤ 0.2,≤ 0.2
"CCOc1cc(-c2ccc(Cl)cc2-c2nncn2C)cc(N2Cc3c(cc(CNCC4(O)CCC4)cc3C(F)(F)F)C2=O)n1 [AHW-1, 2-{4-[4-Chloro-2-(4-methyl-1,2,4-triazol-3-yl)phenyl]-6-ethoxypyridin-2-yl}-6-({[(1-hydroxycyclobutyl)methyl]amino}methyl)-4-(trifluoromethyl)-3H-isoindol-1-one]",≤ 0.2,≤ 0.2
"Cn1cnnc1-c1cc(F)ccc1-c1cc(C2CC2)nc(N2Cc3c(cc(COCCO)cc3C(F)(F)F)C2=O)c1 [AHX-2, 2-(6-Cyclopropyl-4-(4-fluoro-2-(4-methyl-4H-1,2,4-triazol-3-yl)phenyl)pyridin-2-yl)-6-((2-hydroxyethoxy)methyl)-4-(trifluoromethyl)isoindolin-1-one]",≤ 0.2,≤ 0.2
"Cn1cnnc1-c1ccccc1-c1cc(N2Cc3c(cccc3C(F)(F)F)C2=O)cc2cc[nH]c12 [AHY-5, 2-{7-[2-(4-Methyl-1,2,4-triazol-3-yl)phenyl]-1H-indol-5-yl}-4-(trifluoromethyl)-3H-isoindol-1-one]",10 to 50,10 to 50
"Cn1cnnc1-c1cc(C#N)ccc1-c1cc(C2CC2)nc(N2Cc3ccc(CNCC4COC4)cc3C2=O)c1 [AHZ-2, 4-[2-Cyclopropyl-6-(6-{1[(oxetan-3-ylmethyl)amino]methyl}-1-oxo-3H-isoindol-2-yl)pyridin-4-yl]-3-(4-methyl-1,2,4-triazol-3-yl)benzonitrile]",≤ 0.2,≤ 0.2
"Cn1cnnc1-c1cc(C#N)ccc1-c1cc(C2CC2)nc(N2Cc3ccc(CNCC4CCC4)cc3C2=O)c1 [AIA-2, 4-[2-(6-{[(Cyclobutylmethyl)amino]methyl}-1-oxo-3H-isoindol-2-yl)-6-cyclopropylpyridin-4-yl]-3-(4-methyl-1,2,4-triazol-3-yl)benzonitrile]",≤ 0.2,≤ 0.2
"Cn1cnnc1-c1cc(C#N)ccc1-c1cc(C2CC2)nc(N2Cc3ccc(CNCC4CC4)cc3C2=O)c1 [AIB-2, 4-(2-Cyclopropyl-6-(6-(((cyclopropylmethyl)amino)methyl)-1-oxoisoindolin-2-yl)pyridin-4-yl)-3-(4-methyl-4H-1,2,4-triazol-3-yl)benzonitrile]",≤ 0.2,≤ 0.2
